Results published in US9029553B2, “2-anilino nicotinyl linked 2-amino benzothiazole conjugates and process for the preparation thereof” (Council of Scientific & Industrial Research, priority 2011, dated 2015).

The compounds below were run on MDA-MB-231/ATCC (assay: NCI SRB GI50 screen). Conditions: Homo sapiens, Breast, 48 hrs exposure, read-out: Growth Inhibition GI50 MDA-MB-231/ATCC.
Type: cell-based
Description: (§1) 2-Anilino nicotinyl linked 2-amino benzothiazole conjugates of formula 9-12 were tested against fifty nine human cancer cell lines derived from nine cancer types (leukemia, non-small cell lung cancer, colon cancer, CNS cancer, melanoma, ovarian cancer, renal cancer, prostate cancer and breast cancer) as per NCI protocol. For each compound, dose response curves for individual cell lines were measured at a minimum of five concentrations at 10 fold dilutions. A protocol of 48 hrs continuous drug exposure was used, and a sulforhodamine B (SRB) protein assay was used to estimate cell viability or growth.

Q: With `O=C(Nc1nc2ccc(F)cc2s1)c1cccnc1Nc1ccc(Cl)cc1` [Compound 9, N3-(6-fluoro-1,3-benzothiazol-2-yl)-2-(4-chloroanilino)nicotinamide] as the compound, how does the GI50 read?
A: 1.85 µM

Each compound was assayed on EKVX (assay: NCI SRB GI50 screen). Conditions: Homo sapiens, Non-small lung, 48 hrs exposure, read-out: Growth Inhibition GI50 EKVX.
Type: cell-based
Description: as §1

Q: Which GI50 does the source give for `O=C(Nc1nc2ccc(F)cc2s1)c1cccnc1Nc1ccc(Cl)cc1` [Compound 9, N3-(6-fluoro-1,3-benzothiazol-2-yl)-2-(4-chloroanilino)nicotinamide] here?
A: 1.94 µM

The compounds below were run on K-562 (assay: NCI SRB GI50 screen). Conditions: Homo sapiens, K562; Leukemia, 48 hrs exposure; read-out: Growth Inhibition GI50 K-562.
Type: cell-based
Description: as §1

Q: `O=C(Nc1nc2ccc(F)cc2s1)c1cccnc1Nc1ccc(Cl)cc1` [Compound 9, N3-(6-fluoro-1,3-benzothiazol-2-yl)-2-(4-chloroanilino)nicotinamide] was tested. Which GI50 did it give?
A: 0.726 µM

Each compound was assayed on NCI-H226 (assay: NCI SRB GI50 screen). Conditions: Homo sapiens, Non-small lung, 48 hrs exposure, read-out: Growth Inhibition GI50 NCI-H226.
Type: cell-based
Description: as §1

Q: Which GI50 does the source give for `O=C(Nc1nc2ccc(F)cc2s1)c1cccnc1Nc1ccc(Cl)cc1` [Compound 9, N3-(6-fluoro-1,3-benzothiazol-2-yl)-2-(4-chloroanilino)nicotinamide] here?
A: 2.32 µM

What follows are compounds tested on MDA-MB-435 (assay: NCI SRB GI50 screen). Conditions: Homo sapiens, Melanoma, 48 hrs exposure, read-out: Growth Inhibition GI50 MDA-MB-435.
Type: cell-based
Description: as §1

Q: For `O=C(Nc1nc2ccc(F)cc2s1)c1cccnc1Nc1ccc(Cl)cc1` [Compound 9, N3-(6-fluoro-1,3-benzothiazol-2-yl)-2-(4-chloroanilino)nicotinamide], which GI50 is on record?
A: 2.99 µM

These compounds were tested on A549/ATCC (assay: NCI SRB GI50 screen). Conditions: Homo sapiens, Non-small lung, 48 hrs exposure, read-out: Growth Inhibition GI50 A549/ATCC.
Type: cell-based
Description: as §1

Q: How did the GI50 turn out when `O=C(Nc1nc2ccc(F)cc2s1)c1cccnc1Nc1ccc(Cl)cc1` [Compound 9, N3-(6-fluoro-1,3-benzothiazol-2-yl)-2-(4-chloroanilino)nicotinamide] was run?
A: 2.32 µM

Each compound was assayed on HCC-2998 (assay: NCI SRB GI50 screen). Conditions: Homo sapiens, Colon, 48 hrs exposure, read-out: Growth Inhibition GI50 HCC-2998.
Type: cell-based
Description: as §1

Q: How did the GI50 turn out when `O=C(Nc1nc2ccc(F)cc2s1)c1cccnc1Nc1ccc(Cl)cc1` [Compound 9, N3-(6-fluoro-1,3-benzothiazol-2-yl)-2-(4-chloroanilino)nicotinamide] was run?
A: 2.75 µM

Each compound was assayed on PC-3 (assay: NCI SRB GI50 screen). Conditions: Homo sapiens, Prostate, 48 hrs exposure, read-out: Growth Inhibition GI50 PC-3.
Type: cell-based
Description: as §1

Q: With `O=C(Nc1nc2ccc(F)cc2s1)c1cccnc1Nc1ccc(Cl)cc1` [Compound 9, N3-(6-fluoro-1,3-benzothiazol-2-yl)-2-(4-chloroanilino)nicotinamide] as the compound, how does the GI50 read?
A: 2.13 µM

The compounds below were run on UO-31 (assay: NCI SRB GI50 screen). Conditions: Homo sapiens, Renal, 48 hrs exposure, read-out: Growth Inhibition GI50 UO-31.
Type: cell-based
Description: as §1

Q: For `O=C(Nc1nc2ccc(F)cc2s1)c1cccnc1Nc1ccc(Cl)cc1` [Compound 9, N3-(6-fluoro-1,3-benzothiazol-2-yl)-2-(4-chloroanilino)nicotinamide], which GI50 is on record?
A: 1.94 µM

These compounds were tested on SNB-75 (assay: NCI SRB GI50 screen). Conditions: Homo sapiens, CNS, 48 hrs exposure, read-out: Growth Inhibition GI50 SNB-75.
Type: cell-based
Description: as §1

Q: With `O=C(Nc1nc2ccc(F)cc2s1)c1cccnc1Nc1ccc(Cl)cc1` [Compound 9, N3-(6-fluoro-1,3-benzothiazol-2-yl)-2-(4-chloroanilino)nicotinamide] as the compound, how does the GI50 read?
A: 2.95 µM

What follows are compounds tested on OVCAR-8 (assay: NCI SRB GI50 screen). Conditions: Homo sapiens, Ovarian, 48 hrs exposure, read-out: Growth Inhibition GI50 OVCAR-8.
Type: cell-based
Description: as §1

Q: Which GI50 does the source give for `O=C(Nc1nc2ccc(F)cc2s1)c1cccnc1Nc1ccc(Cl)cc1` [Compound 9, N3-(6-fluoro-1,3-benzothiazol-2-yl)-2-(4-chloroanilino)nicotinamide] here?
A: 2.24 µM

The compounds below were run on TK-10 (assay: NCI SRB GI50 screen). Conditions: Homo sapiens, Renal, 48 hrs exposure, read-out: Growth Inhibition GI50 TK-10.
Type: cell-based
Description: as §1

Q: `O=C(Nc1nc2ccc(F)cc2s1)c1cccnc1Nc1ccc(Cl)cc1` [Compound 9, N3-(6-fluoro-1,3-benzothiazol-2-yl)-2-(4-chloroanilino)nicotinamide] was tested. Which GI50 did it give?
A: 3 µM

Each compound was assayed on SF-268 (assay: NCI SRB GI50 screen). Conditions: Homo sapiens, CNS, 48 hrs exposure, read-out: Growth Inhibition GI50 SF-268.
Type: cell-based
Description: as §1

Q: Which GI50 does the source give for `O=C(Nc1nc2ccc(F)cc2s1)c1cccnc1Nc1ccc(Cl)cc1` [Compound 9, N3-(6-fluoro-1,3-benzothiazol-2-yl)-2-(4-chloroanilino)nicotinamide] here?
A: 3.93 µM

These compounds were tested on OVCAR-4 (assay: NCI SRB GI50 screen). Conditions: Homo sapiens, Ovarian, 48 hrs exposure, read-out: Growth Inhibition GI50 OVCAR-4.
Type: cell-based
Description: as §1

Q: With `O=C(Nc1nc2ccc(F)cc2s1)c1cccnc1Nc1ccc(Cl)cc1` [Compound 9, N3-(6-fluoro-1,3-benzothiazol-2-yl)-2-(4-chloroanilino)nicotinamide] as the compound, how does the GI50 read?
A: 2.92 µM

What follows are compounds tested on NCI-H522 (assay: NCI SRB GI50 screen). Conditions: Homo sapiens, Non-small lung, 48 hrs exposure, read-out: Growth Inhibition GI50 NCI-H522.
Type: cell-based
Description: as §1

Q: Which GI50 does the source give for `O=C(Nc1nc2ccc(F)cc2s1)c1cccnc1Nc1ccc(Cl)cc1` [Compound 9, N3-(6-fluoro-1,3-benzothiazol-2-yl)-2-(4-chloroanilino)nicotinamide] here?
A: 1.02 µM

These compounds were tested on UACC-62 (assay: NCI SRB GI50 screen). Conditions: Homo sapiens, Melanoma, 48 hrs exposure, read-out: Growth Inhibition GI50 UACC-62.
Type: cell-based
Description: as §1

Q: `O=C(Nc1nc2ccc(F)cc2s1)c1cccnc1Nc1ccc(Cl)cc1` [Compound 9, N3-(6-fluoro-1,3-benzothiazol-2-yl)-2-(4-chloroanilino)nicotinamide] was tested. Which GI50 did it give?
A: 1.94 µM

The compounds below were run on NCI-H460 (assay: NCI SRB GI50 screen). Conditions: Homo sapiens, Non-small lung, 48 hrs exposure, read-out: Growth Inhibition GI50 NCI-H460.
Type: cell-based
Description: as §1

Q: With `O=C(Nc1nc2ccc(F)cc2s1)c1cccnc1Nc1ccc(Cl)cc1` [Compound 9, N3-(6-fluoro-1,3-benzothiazol-2-yl)-2-(4-chloroanilino)nicotinamide] as the compound, how does the GI50 read?
A: 1.97 µM

The compounds below were run on COLO 205 (assay: NCI SRB GI50 screen). Conditions: Homo sapiens, Colon, 48 hrs exposure, read-out: Growth Inhibition GI50 COLO 205.
Type: cell-based
Description: as §1

Q: `O=C(Nc1nc2ccc(F)cc2s1)c1cccnc1Nc1ccc(Cl)cc1` [Compound 9, N3-(6-fluoro-1,3-benzothiazol-2-yl)-2-(4-chloroanilino)nicotinamide] was tested. Which GI50 did it give?
A: 1.68 µM

These compounds were tested on SF-295 (assay: NCI SRB GI50 screen). Conditions: Homo sapiens, CNS, 48 hrs exposure, read-out: Growth Inhibition GI50 SF-295.
Type: cell-based
Description: as §1

Q: With `O=C(Nc1nc2ccc(F)cc2s1)c1cccnc1Nc1ccc(Cl)cc1` [Compound 9, N3-(6-fluoro-1,3-benzothiazol-2-yl)-2-(4-chloroanilino)nicotinamide] as the compound, how does the GI50 read?
A: 1.8 µM

What follows are compounds tested on SK-OV-3 (assay: NCI SRB GI50 screen). Conditions: Homo sapiens, Ovarian, 48 hrs exposure, read-out: Growth Inhibition GI50 SK-OV-3.
Type: cell-based
Description: as §1

Q: `O=C(Nc1nc2ccc(F)cc2s1)c1cccnc1Nc1ccc(Cl)cc1` [Compound 9, N3-(6-fluoro-1,3-benzothiazol-2-yl)-2-(4-chloroanilino)nicotinamide] was tested. Which GI50 did it give?
A: 2.23 µM

These compounds were tested on M14 (assay: NCI SRB GI50 screen). Conditions: Homo sapiens, Melanoma, 48 hrs exposure, read-out: Growth Inhibition GI50 M14.
Type: cell-based
Description: as §1

Q: `O=C(Nc1nc2ccc(F)cc2s1)c1cccnc1Nc1ccc(Cl)cc1` [Compound 9, N3-(6-fluoro-1,3-benzothiazol-2-yl)-2-(4-chloroanilino)nicotinamide] was tested. Which GI50 did it give?
A: 2.64 µM

What follows are compounds tested on MDA-MB-468 (assay: NCI SRB GI50 screen). Conditions: Homo sapiens, Breast, 48 hrs exposure, read-out: Growth Inhibition GI50 MDA-MB-468.
Type: cell-based
Description: as §1

Q: For `O=C(Nc1nc2ccc(F)cc2s1)c1cccnc1Nc1ccc(Cl)cc1` [Compound 9, N3-(6-fluoro-1,3-benzothiazol-2-yl)-2-(4-chloroanilino)nicotinamide], which GI50 is on record?
A: 1.61 µM

Each compound was assayed on HOP-62 (assay: NCI SRB GI50 screen). Conditions: Homo sapiens, Non-small lung, 48 hrs exposure, read-out: Growth Inhibition GI50 HOP-62.
Type: cell-based
Description: as §1

Q: For `O=C(Nc1nc2ccc(F)cc2s1)c1cccnc1Nc1ccc(Cl)cc1` [Compound 9, N3-(6-fluoro-1,3-benzothiazol-2-yl)-2-(4-chloroanilino)nicotinamide], which GI50 is on record?
A: 2.7 µM

The compounds below were run on MOLT-4 (assay: NCI SRB GI50 screen). Conditions: Homo sapiens, Leukemia, 48 hrs exposure, read-out: Growth Inhibition GI50 MOLT-4.
Type: cell-based
Description: as §1

Q: `O=C(Nc1nc2ccc(F)cc2s1)c1cccnc1Nc1ccc(Cl)cc1` [Compound 9, N3-(6-fluoro-1,3-benzothiazol-2-yl)-2-(4-chloroanilino)nicotinamide] was tested. Which GI50 did it give?
A: 2.22 µM

What follows are compounds tested on HOP-92 (assay: NCI SRB GI50 screen). Conditions: Homo sapiens, Non-small lung, 48 hrs exposure, read-out: Growth Inhibition GI50 HOP-92.
Type: cell-based
Description: as §1

Q: With `O=C(Nc1nc2ccc(F)cc2s1)c1cccnc1Nc1ccc(Cl)cc1` [Compound 9, N3-(6-fluoro-1,3-benzothiazol-2-yl)-2-(4-chloroanilino)nicotinamide] as the compound, how does the GI50 read?
A: 1.69 µM

The compounds below were run on MALME-3M (assay: NCI SRB GI50 screen). Conditions: Homo sapiens, read-out: Growth Inhibition GI50 MALME-3M, Melanoma, 48 hrs exposure.
Type: cell-based
Description: as §1

Q: For `O=C(Nc1nc2ccc(F)cc2s1)c1cccnc1Nc1ccc(Cl)cc1` [Compound 9, N3-(6-fluoro-1,3-benzothiazol-2-yl)-2-(4-chloroanilino)nicotinamide], which GI50 is on record?
A: 1.94 µM

What follows are compounds tested on UACC-257 (assay: NCI SRB GI50 screen). Conditions: Homo sapiens, Melanoma, 48 hrs exposure, read-out: Growth Inhibition GI50 UACC-257.
Type: cell-based
Description: as §1

Q: With `O=C(Nc1nc2ccc(F)cc2s1)c1cccnc1Nc1ccc(Cl)cc1` [Compound 9, N3-(6-fluoro-1,3-benzothiazol-2-yl)-2-(4-chloroanilino)nicotinamide] as the compound, how does the GI50 read?
A: 0.164 µM

What follows are compounds tested on T-47D (assay: NCI SRB GI50 screen). Conditions: Homo sapiens, T47D; Breast, 48 hrs exposure; read-out: Growth Inhibition GI50 T-47D.
Type: cell-based
Description: as §1

Q: How did the GI50 turn out when `O=C(Nc1nc2ccc(F)cc2s1)c1cccnc1Nc1ccc(Cl)cc1` [Compound 9, N3-(6-fluoro-1,3-benzothiazol-2-yl)-2-(4-chloroanilino)nicotinamide] was run?
A: 0.73 µM

These compounds were tested on U251 (assay: NCI SRB GI50 screen). Conditions: Homo sapiens, U-251; CNS, 48 hrs exposure; read-out: Growth Inhibition GI50 U251.
Type: cell-based
Description: as §1

Q: Which GI50 does the source give for `O=C(Nc1nc2ccc(F)cc2s1)c1cccnc1Nc1ccc(Cl)cc1` [Compound 9, N3-(6-fluoro-1,3-benzothiazol-2-yl)-2-(4-chloroanilino)nicotinamide] here?
A: 3.03 µM

These compounds were tested on NCI/ADR-RES (assay: NCI SRB GI50 screen). Conditions: Homo sapiens, Ovarian, 48 hrs exposure, read-out: Growth Inhibition GI50 NCI/ADR-RES.
Type: cell-based
Description: as §1

Q: With `O=C(Nc1nc2ccc(F)cc2s1)c1cccnc1Nc1ccc(Cl)cc1` [Compound 9, N3-(6-fluoro-1,3-benzothiazol-2-yl)-2-(4-chloroanilino)nicotinamide] as the compound, how does the GI50 read?
A: 2.09 µM

The compounds below were run on MCF7 (assay: NCI SRB GI50 screen). Conditions: Homo sapiens, Breast, 48 hrs exposure, read-out: Growth Inhibition GI50 MCF7.
Type: cell-based
Description: as §1

Q: How did the GI50 turn out when `O=C(Nc1nc2ccc(F)cc2s1)c1cccnc1Nc1ccc(Cl)cc1` [Compound 9, N3-(6-fluoro-1,3-benzothiazol-2-yl)-2-(4-chloroanilino)nicotinamide] was run?
A: 2.38 µM
